# Results from article PMC3445454, “Broad and Cross-Clade CD4^+ T-Cell Responses Elicited by a DNA Vaccine Encoding Highly Conserved and Promiscuous HIV-1 M-Group Consensus Peptides” (PLoS ONE, 2012).
# Residue numbers refer to the chain shown, from its start. Read-outs that look alike come from different tables or passages of the source. Ends that are not written are not given here.
# Legend:
# Assay in all cases: biochemical
# [1] = biological target: HLA-DR DRB1*13:02 (Homo sapiens, UniProt P01903+P01911, A100E/A169T/K41T/L162R/M171V/P40S/Q125H/Q178H/Q39Y/Q99D/R42S/S66N/T262R/V115G/W38E/Y61H); type: binding
# [2] = biological target: HLA-DP DPA1*03:01/DPB1*04:02 (Homo sapiens, UniProt P04440+P20036, A42M/A65V/A84D/A85E/L207M/L97S)
# [3] = biological target: T1, HLA-DP DPA1*01:03/DPB1*20:01 (Homo sapiens, UniProt P04440+P20036, A65V/A84D/A85E/E86D/F38Y/G113D/G114E/G40L/I94L/L37V/M116V/P115A/R125K/T199I); type: binding
# T1 sequence (P20036 29-260): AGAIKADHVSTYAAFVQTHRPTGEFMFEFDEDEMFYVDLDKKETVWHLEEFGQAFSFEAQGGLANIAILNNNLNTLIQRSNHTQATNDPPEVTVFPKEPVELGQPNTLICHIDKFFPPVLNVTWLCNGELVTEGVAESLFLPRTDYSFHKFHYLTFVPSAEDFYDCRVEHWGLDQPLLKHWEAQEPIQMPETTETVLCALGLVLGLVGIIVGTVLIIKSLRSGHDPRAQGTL
# T1 sequence (P04440 30-258 L37V/F38Y/G40L/A65V/A84D/A85E/E86D/I94L/G113D/G114E/P115A/M116V/R125K/T199I/V234M): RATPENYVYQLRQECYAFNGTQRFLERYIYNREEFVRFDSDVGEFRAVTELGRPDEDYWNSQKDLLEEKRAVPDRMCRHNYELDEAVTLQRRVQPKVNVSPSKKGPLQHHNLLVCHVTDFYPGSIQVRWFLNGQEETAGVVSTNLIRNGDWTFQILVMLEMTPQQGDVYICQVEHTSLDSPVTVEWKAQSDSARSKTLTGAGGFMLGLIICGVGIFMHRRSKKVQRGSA
# [4] = biological target: HLA-DR DRB1*08:02 (Homo sapiens, UniProt P01903+P01911, A100R/A103L/A169T/F76Y/H45Y/I96F/K41T/L162R/M171V/P40S/Q125H/Q178H/Q39Y/Q99D/R218S/R42G/S66Y/V115G/W38E); type: binding
# [5] = biological target: HLA-DR DRB1*04:01 (Homo sapiens, UniProt P01903+P01911, A100K/A169T/F76Y/I96L/K127E/L162R/M171V/N62H/P40V/Q125Y/R42H/S133A/S149N/S66Y/V115G/V209L/W38E); type: binding
# [6] = biological target: HLA-DP DPA1*02:01/DPB1*01:01 (Homo sapiens, UniProt P04440+P20036, F191V/F38Y/F64Y/G113D/G114E/K142R/L158P/L37V/M105V/M116V/M62Q/P115A/Q81R/R125K/R223Q/T114A/T199I/T259P)
# [7] = biological target: HLA-DR DRB1*01:01 (Homo sapiens, UniProt P01903+P01911, A100R/D57E/F55L/F60I/F76Y/I96L/L162R/M171V/P40L/Q125E/R42F/V115G/Y59C); type: binding
# [8] = biological target: T2, HLA-DP DPA1*01:03/DPB1*03:01 (Homo sapiens, UniProt P04440+P20036, A65V/A84D/A85E/E86D/F38Y/G113D/G114E/G40L/I94L/L37V/M105V/M116V/P115A/R125K/T199I); type: binding
# T2 sequence (P20036 29-260): T1 sequence (P20036 29-260)
# T2 sequence (P04440 30-258 L37V/F38Y/G40L/A65V/A84D/A85E/E86D/I94L/M105V/G113D/G114E/P115A/M116V/R125K/T199I): T1 sequence (P04440 30-258 L37V/F38Y/G40L/A65V/A84D/A85E/E86D/I94L/G113D/G114E/P115A/M116V/R125K/T199I/V234M) with M76V, M205V
# [9] = biological target: HLA-DR DRB1*07:01 (Homo sapiens, UniProt P01903+P01911, A100R/A102G/A103Q/D57E/D86V/E43K/F76Y/K127E/L162R/M171V/P40G/Q125H/Q99D/R33Q/R42Y/R54Q/S133A/S66F/T210M/V115G/Y107V/Y59L/Y89S); type: binding
# [10] = biological target: HLA-DR DRB1*10:01 (Homo sapiens, UniProt P01903+P01911, A100R/A169T/D57E/F55L/F60V/F69Y/F76Y/I96L/L162R/M171V/P40V/Q260P/Q39E/Q99R/R195Q/R42F/S149N/S66Y/T210M/V115G/V67A/W38E/Y59R/Y61H); type: binding
# [11] = biological target: HLA-DR DRB3*01:01 (Homo sapiens, UniProt P01903+P79483); type: binding
# [12] = read-out: Binding capacity/IC50 (nM) DRB1*13:02
# [13] = read-out: Binding capacity/IC50 (nM) DPA1*01:03 DPB1*20:01
# [14] = read-out: Binding capacity/IC50 (nM) DRB1*08:02
# [15] = read-out: Binding capacity/IC50 (nM) DRB1*04:01
# [16] = read-out: Binding capacity/IC50 (nM) DRB1*01:01
# [17] = read-out: Binding capacity/IC50 (nM) DPA1*01:03 DPB1*03:01
# [18] = read-out: Binding capacity/IC50 (nM) DRB1*07:01
# [19] = read-out: Binding capacity/IC50 (nM) DRB1*10:01
# [20] = read-out: Binding capacity/IC50 (nM) DRB3*01:01
# Sequence of HLA-DR DRB1*13:02 (P01903 26-254 limits assumed, other chains not shown): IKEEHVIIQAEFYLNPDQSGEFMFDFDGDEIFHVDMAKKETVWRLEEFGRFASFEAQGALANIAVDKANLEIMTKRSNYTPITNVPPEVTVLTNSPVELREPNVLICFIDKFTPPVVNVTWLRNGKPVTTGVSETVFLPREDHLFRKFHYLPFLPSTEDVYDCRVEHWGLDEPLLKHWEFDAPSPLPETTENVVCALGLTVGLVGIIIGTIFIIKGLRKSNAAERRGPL
# Sequence of HLA-DP DPA1*02:01/DPB1*01:01 (P20036 29-260 A42M/M62Q/Q81R/T114A/K142R/L158P/F191V/T259P, other chains not shown): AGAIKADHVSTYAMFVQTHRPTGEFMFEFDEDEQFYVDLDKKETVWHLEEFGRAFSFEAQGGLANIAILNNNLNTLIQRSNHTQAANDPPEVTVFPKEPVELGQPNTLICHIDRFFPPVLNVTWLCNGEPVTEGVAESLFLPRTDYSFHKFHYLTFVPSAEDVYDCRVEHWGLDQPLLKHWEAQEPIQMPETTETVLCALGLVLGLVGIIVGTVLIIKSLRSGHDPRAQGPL
Molecule,"IC50 [1, 12]",IC50 [2],"IC50 [3, 13]","IC50 [4, 14]","IC50 [5, 15]",IC50 [6],"IC50 [7, 16]","IC50 [8, 17]","IC50 [9, 18]","IC50 [10, 19]","IC50 [11, 20]",IC50 [11],IC50 [1],IC50 [4],IC50 [5],IC50 [7],IC50 [9],IC50 [10],IC50 [3],IC50 [8]
CC[C@H](C)[C@H](NC(=O)[C@H](Cc1ccc(O)cc1)NC(=O)CNC(=O)[C@H](CO)NC(=O)[C@H](C)NC(=O)[C@@H](NC(=O)[C@H](Cc1c[nH]cn1)NC(=O)[C@@H](NC(=O)[C@H](C)NC(=O)[C@@H](NC(=O)[C@H](CC(C)C)NC(=O)[C@@H](NC(=O)[C@@H](NC(=O)[C@H](CCCCN)NC(=O)CNC(=O)[C@@H](N)CCC(=O)O)[C@@H](C)CC)[C@@H](C)CC)C(C)C)C(C)C)C(C)C)C(=O)N[C@@H](CCC(=O)O)C(N)=O [integrase(69-85)],17000 nM,212 nM,470 nM,11 nM,7.6 nM,5930 nM,0.56 nM,1990 nM,70 nM,4.8 nM,624 nM,,,,,,,,,
CC[C@H](C)[C@H](NC(=O)[C@@H](NC(=O)[C@H](CCCCN)NC(=O)[C@@H](NC(=O)[C@@H]1CCCN1C(=O)[C@H](Cc1c[nH]c2ccccc12)NC(=O)[C@H](CCCNC(=N)N)NC(=O)CNC(=O)[C@H](C)NC(=O)[C@H](CC(C)C)NC(=O)[C@H](CCCCN)NC(=O)[C@H](CC(C)C)NC(=O)[C@@H](NC(=O)[C@H](Cc1ccccc1)NC(=O)[C@H](Cc1ccc(O)cc1)NC(=O)[C@H](C)NC(=O)[C@@H](NC(=O)[C@@H](N)CCC(=O)O)[C@@H](C)O)[C@@H](C)CC)C(C)C)C(C)C)C(N)=O [integrase(96-113)],4410 nM,141 nM,857 nM,365 nM,1770 nM,792 nM,4.3 nM,1020 nM,1380 nM,13 nM,583 nM,,,,,,,,,
CC[C@H](C)[C@H](NC(=O)[C@H](CCCCN)NC(=O)[C@@H](NC(=O)[C@@H](NC(=O)[C@@H](N)CCC(N)=O)[C@@H](C)CC)[C@@H](C)O)C(=O)N[C@@H](CCC(N)=O)C(=O)N[C@@H](CC(N)=O)C(=O)N[C@@H](Cc1ccccc1)C(=O)N[C@@H](CCCNC(=N)N)C(=O)N[C@H](C(=O)N[C@@H](Cc1ccc(O)cc1)C(=O)N[C@@H](Cc1ccc(O)cc1)C(=O)N[C@@H](CCCNC(=N)N)C(=O)N[C@@H](CC(=O)O)C(=O)N[C@@H](CO)C(=O)N[C@@H](CCCNC(=N)N)C(=O)N[C@@H](CC(=O)O)C(=O)N1CCC[C@H]1C(=O)N[C@H](C(=O)N[C@@H](Cc1c[nH]c2ccccc12)C(N)=O)[C@@H](C)CC)C(C)C [integrase(216-235)],1930 nM,89 nM,39 nM,8.8 nM,203 nM,400 nM,0.7 nM,83 nM,63 nM,45 nM,,39 nM,,,,,,,,
CC[C@H](C)[C@H](NC(=O)[C@H](C)NC(=O)[C@H](CCCCN)NC(=O)[C@H](CCCCN)NC(=O)CNC(=O)[C@H](CS)NC(=O)[C@@H](NC(=O)[C@H](CCC(=O)O)NC(=O)[C@@H](NC(=O)[C@H](CC(C)C)NC(=O)[C@@H](NC(=O)[C@H](CCC(N)=O)NC(=O)[C@H](CC(=O)O)NC(=O)[C@H](Cc1ccc(O)cc1)NC(=O)[C@H](CCC(N)=O)NC(=O)[C@H](CCCNC(=N)N)NC(=O)[C@@H](NC(=O)[C@H](CCCCN)NC(=O)[C@@H](NC(=O)[C@@H](N)Cc1ccccc1)[C@@H](C)CC)C(C)C)[C@@H](C)CC)[C@@H](C)CC)[C@@H](C)CC)C(=O)NCC(=O)N[C@H](C(=O)N[C@H](C(N)=O)C(C)C)[C@@H](C)O [protease(53-75)],,342 nM,19 nM,,,112 nM,,9.4 nM,,,545 nM,,4080 nM,325 nM,675 nM,29 nM,1770 nM,62 nM,,
CC[C@H](C)[C@H](NC(=O)[C@H](C)NC(=O)[C@@H](N)CCC(=O)O)C(=O)N[C@H](C(=O)N[C@@H](CCCNC(=N)N)C(=O)N[C@H](C(=O)N[C@@H](CC(C)C)C(=O)N[C@@H](CCC(N)=O)C(=O)N[C@@H](CCC(N)=O)C(=O)N[C@@H](CC(C)C)C(=O)N[C@@H](CC(C)C)C(=O)N[C@@H](Cc1ccccc1)C(=O)N[C@H](C(=O)N[C@@H](Cc1c[nH]cn1)C(=O)N[C@@H](Cc1ccccc1)C(=O)N[C@@H](CCCNC(=N)N)C(=O)N[C@H](C(=O)NCC(=O)N[C@@H](CS)C(=O)N[C@@H](CCC(N)=O)C(=O)N[C@@H](Cc1c[nH]cn1)C(=O)N[C@@H](CO)C(=O)N[C@@H](CCCNC(=N)N)C(N)=O)[C@@H](C)CC)[C@@H](C)CC)[C@@H](C)CC)[C@@H](C)CC [vpr(58-80)],,96 nM,,,,2630 nM,,,,,,11600 nM,5010 nM,61 nM,361 nM,305 nM,885 nM,170 nM,398 nM,348 nM
SEELRSLYNTVATLYCVHQ-NH2 [p17(72-90)],1050 nM,83 nM,2310 nM,73 nM,279 nM,860 nM,20 nM,,661 nM,39 nM,907 nM,,,,,,,,,1740 nM
VVIQDNSDIKVVPRRKAKII-NH2 [integrase(249-268)],,3670 nM,1080 nM,,,5730 nM,,350 nM,,,2650 nM,,5420 nM,89 nM,2870 nM,110 nM,5710 nM,913 nM,,
